Laboratory results reported in BindingDB's records for patent US20240182453 (Boehringer Ingelheim International, 2024).

Molecular target: Metabotropic glutamate receptor 4 (Homo sapiens, UniProt Q14833)
Experiment: In Vitro Testing of mGluR4 Potency
Procedure: The in vitro activity of the compounds according to the invention may be investigated as follows:[0111]The HEK293 cell overexpressing the human metabotropic Glutamate 4 receptor are thawed at 37 C. and immediately diluted with cell culture medium. After centrifugation, the cell pellet is re-suspended in medium and then distributed from a stirred spinner flask into the wells of the assay plate. The plates are incubated for one hour at room temperature before they are incubated for 24 hours at 37 C./5% CO2. After washing the cells in the plate three times with 80 uL HBSS/HEPES buffer (10 uL buffer remained in the wells after washing), 5 uL per well of compounds diluted in HBSS/HEPES buffer containing 0.2% BSA (final concentration: 0.1%) and 1 mM IBMX (final concentration: 0.5 mM) are added to the wells of the assay plate. Thereafter 5 uL per well of L-Glutamic acid (final concentration: 10 uM), forskolin (final concentration: 1 uM) and 1 mM IBMX (final concentration: 0.5 mM) dissolved in HBSS/HEPES buffer containing 0.2% BSA (final concentration: 0.1%) are added to the assay plate (final DMSO concentration: 1%). […] The emission at 615 nm and 665 nm (Excitation wavelength: 320 nm) are measured on the EnVision reader (Perkin Elmer). The ratio between the emission at 665 nm and 615 is calculated by the reader. […]

Chain of Metabotropic glutamate receptor 4 (Q14833 whole entry): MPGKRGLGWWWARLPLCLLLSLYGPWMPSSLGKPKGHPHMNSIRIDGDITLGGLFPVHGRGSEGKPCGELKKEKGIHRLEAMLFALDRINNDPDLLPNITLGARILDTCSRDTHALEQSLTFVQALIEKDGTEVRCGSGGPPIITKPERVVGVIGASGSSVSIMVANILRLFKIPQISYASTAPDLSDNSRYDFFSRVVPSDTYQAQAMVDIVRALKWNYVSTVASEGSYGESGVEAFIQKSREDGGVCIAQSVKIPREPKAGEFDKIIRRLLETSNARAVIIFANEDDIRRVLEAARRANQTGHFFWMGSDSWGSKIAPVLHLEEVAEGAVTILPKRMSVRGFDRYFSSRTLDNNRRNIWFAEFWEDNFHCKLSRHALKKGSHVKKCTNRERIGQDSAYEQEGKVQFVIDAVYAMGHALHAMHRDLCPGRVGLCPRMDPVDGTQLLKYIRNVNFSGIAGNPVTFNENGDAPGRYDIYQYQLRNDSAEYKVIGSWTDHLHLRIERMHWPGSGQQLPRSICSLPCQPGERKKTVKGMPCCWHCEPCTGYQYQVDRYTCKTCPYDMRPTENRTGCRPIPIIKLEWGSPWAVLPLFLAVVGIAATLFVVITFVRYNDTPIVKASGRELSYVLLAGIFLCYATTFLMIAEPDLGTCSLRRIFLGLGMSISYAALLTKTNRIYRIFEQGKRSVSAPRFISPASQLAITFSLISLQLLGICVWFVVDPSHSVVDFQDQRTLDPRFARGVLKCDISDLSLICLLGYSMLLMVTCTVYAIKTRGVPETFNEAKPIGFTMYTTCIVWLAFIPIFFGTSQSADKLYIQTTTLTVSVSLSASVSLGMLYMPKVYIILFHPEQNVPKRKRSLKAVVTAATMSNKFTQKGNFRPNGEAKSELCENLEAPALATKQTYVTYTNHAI

IC50: 23 nM
Structure (SMILES): Cc1cnc(C(=O)N[C@H](c2nc3cc(F)c(F)cc3n2C)C2CC2)cn1 [US20240182453, Example 66]
